Assays:
PBMC [1] = experiment: Inhibition of LPS-induced TNF-alpha production in rat PBMC
PBMC [2] = experiment: Inhibition of LPS-induced TNF-alpha production in human PBMC; assay type: functional, cell-based

| Compound | IC50 (PBMC [1]) [µM] | IC50 (PBMC [2]) [µM] |
| --- | --- | --- |
| O/N=C1\CCC(C2CCCCC2)=C1c1ccc(F)c(F)c1 | 0.34 | – |
| O/N=C1\CCC(C2CCCC2)=C1c1ccc(F)cc1 | 0.46 | – |
| O/N=C1\CCC(C2CCCC2)=C1c1ccc(F)c(F)c1 | 0.13 | 0.26 |
| O/N=C1\CCC(C2CCCC2)=C1c1ccc2c(c1)OCO2 | 0.35 | – |
| O/N=C1\CCC(C2CCCC2)=C1c1cccc(O)c1 | 6.22 | – |
| O/N=C1\CCC(C2CCCC2)=C1c1cccc(C(F)(F)F)c1 | 3.07 | – |
| O/N=C1\CCC(C2CCCCC2)=C1c1ccc(F)cc1 | 1.24 | – |
| O/N=C1\CCC(C2CCCCC2)=C1c1ccc(F)c(Cl)c1 | 0.42 | – |
| CCCCCC1=C(c2ccc(F)cc2)/C(=N/O)CC1 | 3.83 | 4.59 |
| CCCCCC1=C(c2ccc(F)c(F)c2)/C(=N/O)CC1 | 3.65 | – |
| CCCCCC1=C(c2cccnc2)/C(=N/O)CC1 | 14.1 | – |
| CCCCC1=C(c2ccc(F)cc2)/C(=N/O)CC1 | 7.88 | – |
| CCCCC1=C(c2ccc3c(c2)OCO3)/C(=N/O)CC1 | 2.52 | 2.92 |
| CCCC1=C(c2ccc(F)cc2)/C(=N/O)CC1 | 2.66 | – |
| CCCC1=C(c2ccc(F)c(F)c2)/C(=N/O)CC1 | 0.72 | – |
| CCC1=C(c2ccc(F)c(F)c2)/C(=N/O)CC1 | 4.56 | – |
| CC1=C(c2ccc(F)c(F)c2)/C(=N/O)CC1 | 48.7 | – |
| COc1ccc(C2CNC(=O)C2)cc1OC1CCCC1 (configuration not stated) [ROLIPRAM] | 0.27 | 0.27 |

— ChEMBL document CHEMBL3286197, “Synthesis and structure-activity relationship of cyclopentenone oximes as novel inhibitors of the production of tumor necrosis factor-α” (Bioorg Med Chem Lett, 2014)
